Measured values: PubChem BioAssay (NCI)
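Each compound was tested at five concentrations against cells in 96-well plates for 48 hours. GI50 is the concentration that inhibits growth by half. TGI: concentration producing complete growth inhibition.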

Legend:
Assay in all cases: inhibition of tumour cell growth, NCI panel, 48 h
[1] = tested on: SK-MEL-5 melanoma
[2] = tested on: LOX IMVI melanoma
[3] = tested on: SK-OV-3 ovarian
[4] = tested on: HCT-116 colon
[5] = tested on: SN12C renal
[6] = tested on: UO-31 renal
[7] = tested on: K-562 leukemia
[8] = tested on: HT29 colon
[9] = tested on: SF-539 CNS

Structure (SMILES) | TGI [1] | TGI [2] | TGI [3] | TGI [4] | TGI [5] | TGI [6] | TGI [7] | TGI [8] | TGI [9] | GI50 [1]
NC(CC(O)(c1ccccc1)c1ccccc1)c1ccccc1S (stereo not given) | 25.6 µM | 30.5 µM | 37.6 µM | 26.2 µM | 44.1 µM | 23.5 µM | 37.2 µM | 37.5 µM | – | –
COc1ccc2[nH]c(C(=O)N3CC(CCl)c4c3cc(N)c3ccccc43)cc2c1 (stereo not given) | < 0.0112 µM | 0.0223 µM | 0.964 µM | 1.09 µM | < 0.0183 µM | < 0.0164 µM | > 100 µM | 1.1 µM | – | –
COC12C=CC(C=C1C#N)CC2 (stereo not given) (tested in a mixture with another compound) | > 100 µM | – | > 100 µM | > 100 µM | > 100 µM | > 100 µM | > 100 µM | > 100 µM | > 100 µM | –
O=[N+]([O-])c1ccc(N2N=C(c3ccc4ccccc4c3O)CC2c2ccc(Cl)cc2)c([N+](=O)[O-])c1 (stereo not given) | 63.3 µM | – | > 100 µM | > 100 µM | > 100 µM | > 100 µM | 52 µM | > 100 µM | > 100 µM | –
CCOC(=O)CCC(NC(=O)Cc1ccc(Oc2nc3ccccc3nc2-c2ccccc2)cc1)C(=O)OCC (stereo not given) | > 100 µM | – | > 100 µM | > 100 µM | > 100 µM | > 100 µM | > 100 µM | > 100 µM | > 100 µM | –
CCCN(CCC)C1CCc2c(ccc3cc[nH]c23)C1 (stereo not given) | 41.4 µM | – | > 100 µM | > 100 µM | > 100 µM | > 100 µM | > 100 µM | > 100 µM | > 100 µM | –
O=[N+]([O-])c1ccc(O)c(/C=N/c2nc(-c3ccccc3)cs2)c1 | 34.4 µM | 38.7 µM | 89.5 µM | 80.9 µM | > 100 µM | > 86.4 µM | 41.9 µM | > 100 µM | – | –
CC(=O)OC(C)c1cc2c(s1)C(=O)c1c(C(C)OC(C)=O)csc1C2=O (stereo not given) | 1.83 µM | – | 13.8 µM | 10.2 µM | 2.04 µM | 2.9 µM | 3.26 µM | 4.35 µM | 2.36 µM | 0.631 µM
N[C@H](CCC(=O)NCP(=O)(O)O)C(=O)O | > 100 µM | – | – | > 100 µM | > 100 µM | > 100 µM | > 100 µM | > 100 µM | > 100 µM | –
COC([C@@H](OC(=O)c1ccccc1)[C@H](OC(=O)c1ccccc1)C(O)COC(=O)c1ccccc1)n1cc(C)c(=O)[nH]c1=O (stereo not given in full) | 24 µM | > 100 µM | > 100 µM | 87.8 µM | > 100 µM | > 100 µM | > 100 µM | 41.4 µM | – | –
